Molecules are shown by their SMILES.

The target in this assay is Micrococcus luteus NRRL B-8166 uricase. As to the kind of experiment: Assay of uricase (spectrophotometric, disappearance of uric acid at 290 nm). The assay is classed as biochemical. As to the method: Uricase was assayed spectrophotometrically by following the disappearance of uric acid at 290 nm using a modification of the procedure described by Mahler et. al, J. Biol. Chem., 216, p. 625, (1955). Assay tubes contained 2.7 ml 50 mM KPi buffer pH 8.6, 0.1 mM sodium EDTA, 0.05 ml 6 mM urate, plus enzyme and water to give a final volume of 3.0 ml. Changes or additions to the assay mixtures were made when necessary. Tubes were incubated for 5 minutes at 30° C; the reaction was started by adding enzyme. Molar extinction coefficient for uric acid at 290 nm is 12,300. Activity was expressed in units of uricase activity, where a unit is that amount of enzyme which catalyzes the oxidation of one μmole of uric acid per minute at 30° C and pH 8.6.

As to `O=C(O)c1nc(=O)[nH]c(=O)[nH]1` [oxonate], where the note is “read-out: inhibition constant for oxonate”, the Ki is 4.5 µM.

With `O=c1[nH]c(=O)c2[nH]c(=O)[nH]c2[nH]1` [uric acid], the Km (substrate not given, the uricase assay uses urate, KPi buffer pH 8.6, 30° C, read-out: Michaelis constant) is 37 µM.

The record behind these values is patent publication US4064010A, “Purification of uricase” (Eastman Kodak Company, priority 1976, dated 1977).
